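Values below derive from 48-hour exposures of cells grown in 96-well plates, with endpoints linearly interpolated between the two concentrations bracketing the appropriate inhibition level. GI50 marks 50% less growth.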 Active and inactive are the calls of the source. Cut-off read from the data, not from the text of the source: active = GI50 up to about 1.1 µM and inactive = higher.
Tests used:
Assay in all cases: NCI-60 cell line screen, 48 h
Hs-578T = tested on: Hs-578T
K562 = tested on: K562
MDA-N = tested on: MDA-N
SF-539 = tested on: SF-539
HCT-116 = tested on: HCT-116
MOLT-4 = tested on: MOLT-4
SK-OV-3 = tested on: SK-OV-3
RPMI-8226 = tested on: RPMI-8226
NCI-H460 = tested on: NCI-H460
SK-MEL-2 = tested on: SK-MEL-2
786-0 = tested on: 786-0
MDA-MB-231 = tested on: MDA-MB-231
NCI-H23 = tested on: NCI-H23
Malme-3M = tested on: Malme-3M
A498 = tested on: A498
ACHN = tested on: ACHN
LOX IMVI = tested on: LOX IMVI
HOP-92 = tested on: HOP-92
HCC 2998 = tested on: HCC 2998
OVCAR-3 = tested on: OVCAR-3
NCI-H226 = tested on: NCI-H226
PC-3 = tested on: PC-3
T47D = tested on: T47D
A549 = tested on: A549
HOP-62 = tested on: HOP-62
OVCAR-4 = tested on: OVCAR-4
TK-10 = tested on: TK-10
SK-MEL-28 = tested on: SK-MEL-28
COLO 205 = tested on: COLO 205
SNB-19 = tested on: SNB-19
RXF 393 = tested on: RXF 393
M14 = tested on: M14
BT-549 = tested on: BT-549
NCI-H522 = tested on: NCI-H522
SNB-75 = tested on: SNB-75
SK-MEL-5 = tested on: SK-MEL-5
HT-29 = tested on: HT-29
U-251 = tested on: U-251
OVCAR-8 = tested on: OVCAR-8
NCI/ADR-RES = tested on: NCI/ADR-RES
CCRF-CEM = tested on: CCRF-CEM
SF-295 = tested on: SF-295
SN12C = tested on: SN12C
IGROV-1 = tested on: IGROV-1
OVCAR-5 = tested on: OVCAR-5
UO-31 = tested on: UO-31
CAKI-1 = tested on: CAKI-1
KM12 = tested on: KM12
MDA-MB-435 = tested on: MDA-MB-435
SW-620 = tested on: SW-620
SF-268 = tested on: SF-268
HL-60 = tested on: HL-60
UACC-257 = tested on: UACC-257
EKVX = tested on: EKVX
MCF7 = tested on: MCF7
UACC-62 = tested on: UACC-62
HCT-15 = tested on: HCT-15
SR = tested on: SR
DU-145 = tested on: DU-145

For CCCCCCCCCCCCCCCCOCC(Cl)COP(=O)(O)OP(=O)(O)OCC1OC(n2cnc3c(N)ncnc32)C(O)C1O (stereo unspecified), the GI50 (Hs-578T) was 32.4 µM (inactive), the GI50 (K562) was > 100 µM (inactive) and the GI50 (MDA-N) was 61.8 µM (inactive). The GI50 (SF-539) was 76 µM (inactive), the GI50 (HCT-116) was 38.1 µM (inactive) and the GI50 (MOLT-4) was > 100 µM (inactive). For the same compound, the GI50 (SK-OV-3) was 68.5 µM (inactive), the GI50 (RPMI-8226) was > 100 µM (inactive) and the GI50 (NCI-H460) was 52.4 µM (inactive). The GI50 (SK-MEL-2) was > 100 µM (inactive), the GI50 (786-0) was > 100 µM (inactive) and the GI50 (MDA-MB-231) was 38.7 µM (inactive). The GI50 (NCI-H23) was > 100 µM (inactive), the GI50 (Malme-3M) was > 100 µM (inactive) and the GI50 (A498) was > 100 µM (inactive). For the same compound, the GI50 (ACHN) was > 100 µM (inactive), the GI50 (LOX IMVI) was 75.9 µM (inactive) and the GI50 (HOP-92) was 70.8 µM (inactive). For the same compound, the GI50 (HCC 2998) was > 100 µM (inactive), the GI50 (OVCAR-3) was > 100 µM (inactive) and the GI50 (NCI-H226) was 36.7 µM (inactive). The GI50 (PC-3) was 29.9 µM (inactive), the GI50 (T47D) was 84.5 µM (inactive) and the GI50 (A549) was > 100 µM (inactive). The GI50 (HOP-62) was > 100 µM (inactive), the GI50 (OVCAR-4) was > 100 µM (inactive) and the GI50 (TK-10) was > 100 µM (inactive). The GI50 (SK-MEL-28) was > 100 µM (inactive), the GI50 (COLO 205) was > 100 µM (inactive) and the GI50 (SNB-19) was > 100 µM (inactive). For the same compound, the GI50 (RXF 393) was > 100 µM (inactive), the GI50 (M14) was 83.6 µM (inactive) and the GI50 (BT-549) was > 100 µM (inactive). For the same compound, the GI50 (NCI-H522) was > 100 µM (inactive), the GI50 (SNB-75) was 31 µM (inactive) and the GI50 (SK-MEL-5) was > 100 µM (inactive). For the same compound, the GI50 (HT-29) was > 100 µM (inactive), the GI50 (U-251) was > 100 µM (inactive) and the GI50 (OVCAR-8) was > 100 µM (inactive). For the same compound, the GI50 (NCI/ADR-RES) was > 100 µM (inactive), the GI50 (CCRF-CEM) was > 100 µM (inactive) and the GI50 (SF-295) was > 100 µM (inactive). For the same compound, the GI50 (SN12C) was > 100 µM (inactive), the GI50 (IGROV-1) was > 100 µM (inactive) and the GI50 (OVCAR-5) was 50.7 µM (inactive). The GI50 (UO-31) was 61 µM (inactive), the GI50 (CAKI-1) was > 100 µM (inactive) and the GI50 (KM12) was 86.9 µM (inactive). The GI50 (MDA-MB-435) was 54.7 µM (inactive), the GI50 (SW-620) was > 100 µM (inactive) and the GI50 (SF-268) was > 100 µM (inactive). For the same compound, the GI50 (HL-60) was > 100 µM (inactive), the GI50 (UACC-257) was > 100 µM (inactive) and the GI50 (EKVX) was > 100 µM (inactive). For the same compound, the GI50 (MCF7) was > 100 µM (inactive), the GI50 (UACC-62) was > 100 µM (inactive) and the GI50 (HCT-15) was over 100 µM.
Cc1nc2ccc(F)cc2c2c1CCO2 was tested, and the GI50 (Hs-578T) was > 100 µM (inactive), the GI50 (K562) was 41.5 µM (inactive) and the GI50 (MDA-N) was 27.7 µM (inactive). For the same compound, the GI50 (SF-539) was > 100 µM (inactive), the GI50 (SR) was > 100 µM (inactive) and the GI50 (HCT-116) was 68.1 µM (inactive). For the same compound, the GI50 (MOLT-4) was > 100 µM (inactive), the GI50 (RPMI-8226) was 80 µM (inactive) and the GI50 (NCI-H460) was 61.1 µM (inactive). The GI50 (SK-MEL-2) was > 100 µM (inactive), the GI50 (786-0) was > 100 µM (inactive) and the GI50 (DU-145) was > 100 µM (inactive). For the same compound, the GI50 (MDA-MB-231) was 20.1 µM (inactive), the GI50 (NCI-H23) was > 100 µM (inactive) and the GI50 (Malme-3M) was > 100 µM (inactive). The GI50 (A498) was > 100 µM (inactive), the GI50 (ACHN) was > 100 µM (inactive) and the GI50 (LOX IMVI) was > 100 µM (inactive). For the same compound, the GI50 (HOP-92) was 78.7 µM (inactive), the GI50 (HCC 2998) was 79.1 µM (inactive) and the GI50 (NCI-H226) was > 100 µM (inactive). For the same compound, the GI50 (T47D) was 52.6 µM (inactive), the GI50 (A549) was > 100 µM (inactive) and the GI50 (OVCAR-4) was > 100 µM (inactive). The GI50 (TK-10) was > 100 µM (inactive), the GI50 (SK-MEL-28) was > 100 µM (inactive) and the GI50 (COLO 205) was 72.8 µM (inactive). For the same compound, the GI50 (SNB-19) was > 100 µM (inactive), the GI50 (RXF 393) was 36.8 µM (inactive) and the GI50 (M14) was 99.1 µM (inactive). The GI50 (BT-549) was 80 µM (inactive), the GI50 (NCI-H522) was > 100 µM (inactive) and the GI50 (SNB-75) was > 100 µM (inactive). The GI50 (SK-MEL-5) was 43.5 µM (inactive), the GI50 (HT-29) was 82.6 µM (inactive) and the GI50 (U-251) was 66.2 µM (inactive). The GI50 (OVCAR-8) was > 100 µM (inactive), the GI50 (NCI/ADR-RES) was > 100 µM (inactive) and the GI50 (CCRF-CEM) was > 100 µM (inactive). The GI50 (SF-295) was > 100 µM (inactive), the GI50 (SN12C) was 30.3 µM (inactive) and the GI50 (IGROV-1) was > 100 µM (inactive). The GI50 (OVCAR-5) was > 100 µM (inactive), the GI50 (UO-31) was 92.3 µM (inactive) and the GI50 (CAKI-1) was 15.2 µM (inactive). The GI50 (KM12) was > 100 µM (inactive), the GI50 (MDA-MB-435) was 70.1 µM (inactive) and the GI50 (SW-620) was > 100 µM (inactive). For the same compound, the GI50 (SF-268) was > 100 µM (inactive), the GI50 (HL-60) was 24.5 µM (inactive) and the GI50 (UACC-257) was > 100 µM (inactive). For the same compound, the GI50 (EKVX) was 39.7 µM (inactive), the GI50 (UACC-62) was > 100 µM (inactive) and the GI50 (HCT-15) was over 100 µM.
